Patent US20220202012A1, “SPROUT INHIBITOR FOR POTATO AND METHOD OF USE THEREOF” (UPL Limited, priority 2019, published 2022)
Where “and” joins values, the source holds several entries; their conditions need not be identical. Equal values may be shown once.

Legend:
storage potatoes = experiment: Field trial: sprout suppression in storage potatoes, composition applied on a conveyor belt; assay type: in vivo, Solanum tuberosum
Description: The efficacy of sprout inhibitor for sprout suppression in storage potatoes was evaluated by applying the composition of present invention on potatoes on a conveyor belt. The treatment application for trial is at crop storage majority treatment 1) Beginning of sprouting: sprouts visible (<1 mm) and, treatment 2) at end of dormancy (sprouts 2-3 mm). After completion of the test, the potatoes were evaluated on sprouting reduction efficiency. No phytotoxicity was observed.

[1] = system: potatoes of the variety Fontane and Innovator; experiment: Field trials in Belgium 2018/2019: anti-sprout spray treatment of stored potatoes; assay type: in vivo, Solanum tuberosum; design: Tuber sprate 126 da-a / Tuber sprate 182 da-a: scale not given here; Sprout weight after 55 DA / Sprout LENMAX after 55 DA / Sprout weight 55 DA / Sprout weight 116 DA / Sprout Lenmax 55 DA / Sprout Lenmax 116 DA / Sprout lenmax 126 DA-A / Sprout lenmax 182 DA-A / Sprout weight 126 DA / Sprout weight 182 DA: unit not given here; conditions: for Sprout LENMAX after 55 DA: Length maximal; for Sprout Lenmax 55 DA / Sprout weight 55 DA / Tuber sprout % 55 DA / Sprout Lenmax 116 DA / Sprout weight 116 DA / Tuber sprout % 116 DA: Table 4; for Sprout lenmax 126 DA-A / Sprout weight 126 DA / Tuber sprouted (%) 126 DA / Tuber sprate 126 da-a / Sprout lenmax 182 DA-A / Sprout weight 182 DA / Tuber sprouted % 182 DA / Tuber sprate 182 da-a: Table 5
Description: Field trials were conducted in Belgium, during 2018 and 2019, in the potato crop. The potatoes of the variety Fontane and Innovator was used for anti-sprout treatment (Variety for processing) came up directly from the field (Harvested on Oct. 5, 2018 and Sep. 19, 2018).
The trial was set up in randomized complete block with single control randomized in each block under commercial storage practice. Potatoes treated 3 days after lifting and skin maturity was good. For application of formulation (carrier: 200 ml water for one treatment) container with rack and spray stick was used.
The first application (A) was carried out Potatoes treated 3 days after lifting. The following applications were carried out at four weeks' interval for each treatment.
(A): right after harvest, before putting into storage.
Storage conditions: The trials are stored in shed at temperature 5-18° C. and all plots of a trial should be stored in the same place.

[2] = Treatment (1): Beginning of sprouting, rate 195 ml/1000 kg
[3] = Treatment (2): At end of dormancy, rate not given
[4] = Treatment (1): Beginning of sprouting, rate 400 ml/1000 kg
[5] = Treatment (1): Beginning of sprouting, rate 60 ml/1000 kg
[6] = Treatment (1): Beginning of sprouting, rate 300 ml/1000 kg

With `CCCCCCC=CC(C)=O` [3-Decen-2-One] the “Sprout No.” value (storage potatoes; [2]) was 9.0, the “Sprouted (%)” value (storage potatoes; [2]) was 24.75% and the “Sprout Number” value (storage potatoes; [3]) was 32.7. The “Sprouted (%)” value (storage potatoes; [3]) was 100.0%.
`O=C(O)COc1ccc(Cl)cc1Cl` [2,4-D] was tested, and the “Sprout No.” value (storage potatoes; [4]) was 12.3, the “Sprouted (%)” value (storage potatoes; [4]) was 31.14% and the “Sprout Number” value (storage potatoes; [3]) was 38.7. The “Sprouted (%)” value (storage potatoes; [3]) was 99.21%.
`Cc1ccc(C)c2ccccc12` [1,4-Dimethylnaphthalene] was tested, and the “Sprout No.” value (storage potatoes; [5]) was 15.7, the “Sprouted (%)” value (storage potatoes; [5]) was 42.80% and the “Sprout Number” value (storage potatoes; [3]) was 34.3. The “Sprouted (%)” value (storage potatoes; [3]) was 94.59%.
With `COCc1cnc(C2=NC(C)(C(C)C)C(=O)N2)c(C(=O)O)c1` (stereo not drawn) [Imazamox, 5-(methoxymethyl)-2-(4-methyl-5-oxo-4-propan-2-yl-1H-imidazol-2-yl)pyridine-3-carboxylic acid] the “Sprout No.” value (storage potatoes; [4]) was 9.7, the “Sprouted (%)” value (storage potatoes; [4]) was 24.77% and the “Sprout Number” value (storage potatoes; [3]) was 16.7. The “Sprouted (%)” value (storage potatoes; [3]) was 42.54%, the “Sprout weight after 55 DA” value ([1]; rate 12 g ai/1000 kg) was 6.89 and the “Tuber SPROUTED (%) after 55 DA” value ([1]; rate 12 g ai/1000 kg) was 78.67%. The “Sprout weight after 55 DA” value ([1]; rate 18 g ai/1000 kg) was 4.09, the “Tuber SPROUTED (%) after 55 DA” value ([1]; rate 18 g ai/1000 kg) was 73.21% and the “Sprout weight after 55 DA” value ([1]; rate 24 g ai/1000 kg) was 4.2. For the same compound, the “Tuber SPROUTED (%) after 55 DA” value ([1]; rate 24 g ai/1000 kg) was 75.26%, the “Sprout weight after 55 DA” value ([1]; rate 30 g ai/1000 kg) was 4.13 and the “Tuber SPROUTED (%) after 55 DA” value ([1]; rate 30 g ai/1000 kg) was 71.68%. For the same compound, the “Sprout LENMAX after 55 DA” value ([1]; rate 12 g ai/1000 kg) was 1.5, the “Sprout LENMAX after 55 DA” value ([1]; rate 18 g ai/1000 kg) was 1.7 and the “Sprout LENMAX after 55 DA” value ([1]; rate 24 g ai/1000 kg) was 1.2. The “Sprout LENMAX after 55 DA” value ([1]; rate 30 g ai/1000 kg) was 1.7, the “Sprout Lenmax 55 DA” value ([1]; rate 100 ml/1000 kg) was 1.5 and the “Sprout weight 55 DA” value ([1]; rate 100 ml/1000 kg) was 6.89. For the same compound, the “Tuber sprout % 55 DA” value ([1]; rate 100 ml/1000 kg) was 78.67%, the “Sprout Lenmax 55 DA” value ([1]; rate 150 ml/1000 kg) was 1.7 and the “Sprout weight 55 DA” value ([1]; rate 150 ml/1000 kg) was 4.09. For the same compound, the “Tuber sprout % 55 DA” value ([1]; rate 150 ml/1000 kg) was 73.21%, the “Sprout Lenmax 55 DA” value ([1]; rate 200 ml/1000 kg) was 1.2 and the “Sprout weight 55 DA” value ([1]; rate 200 ml/1000 kg) was 4.2. The “Tuber sprout % 55 DA” value ([1]; rate 200 ml/1000 kg) was 75.26%, the “Sprout Lenmax 55 DA” value ([1]; rate 250 ml/1000 kg) was 1.7 and the “Sprout weight 55 DA” value ([1]; rate 250 ml/1000 kg) was 4.13. The “Tuber sprout % 55 DA” value ([1]; rate 250 ml/1000 kg) was 71.68%, the “Sprout Lenmax 116 DA” value ([1]; rate 100 ml/1000 kg) was 3.3 and the “Sprout weight 116 DA” value ([1]; rate 100 ml/1000 kg) was 12.31. The “Tuber sprout % 116 DA” value ([1]; rate 100 ml/1000 kg) was 85.86%, the “Sprout Lenmax 116 DA” value ([1]; rate 150 ml/1000 kg) was 2.8 and the “Sprout weight 116 DA” value ([1]; rate 150 ml/1000 kg) was 7.92. The “Tuber sprout % 116 DA” value ([1]; rate 150 ml/1000 kg) was 79.15%, the “Sprout Lenmax 116 DA” value ([1]; rate 200 ml/1000 kg) was 2 and the “Sprout weight 116 DA” value ([1]; rate 200 ml/1000 kg) was 7.07. The “Tuber sprout % 116 DA” value ([1]; rate 200 ml/1000 kg) was 81.59%, the “Sprout Lenmax 116 DA” value ([1]; rate 250 ml/1000 kg) was 1.3 and the “Sprout weight 116 DA” value ([1]; rate 250 ml/1000 kg) was 4.92. For the same compound, the “Tuber sprout % 116 DA” value ([1]; rate 250 ml/1000 kg) was 71.93%, the “Sprout lenmax 126 DA-A” value ([1]; rate 50 ml/1000 kg) was 3.7 and the “Sprout lenmax 126 DA-A” value ([1]; rate 100 ml/1000 kg) was 2.8 and 5.2. The “Sprout lenmax 126 DA-A” value ([1]; rate 150 ml/1000 kg) was 1.7, the “Sprout lenmax 126 DA-A” value ([1]; rate 200 ml/1000 kg) was 2.2 and 2.1 and the “Sprout lenmax 126 DA-A” value ([1]; rate 250 ml/1000 kg) was 0.9. For the same compound, the “Sprout weight 126 DA” value ([1]; rate 50 ml/1000 kg) was 6.54, the “Tuber sprouted (%) 126 DA” value ([1]; rate 50 ml/1000 kg) was 88.47% and the “Sprout weight 126 DA” value ([1]; rate 150 ml/1000 kg) was 2.23 and 1.83. The “Tuber sprouted (%) 126 DA” value ([1]; rate 150 ml/1000 kg) was 81.43% and 72.58%, the “Sprout weight 126 DA” value ([1]; rate 200 ml/1000 kg) was 1.93 and 1.75 and the “Tuber sprouted (%) 126 DA” value ([1]; rate 200 ml/1000 kg) was 73.58% and 75.44%. For the same compound, the “Sprout weight 126 DA” value ([1]; rate 250 ml/1000 kg) was 1.65, the “Tuber sprouted (%) 126 DA” value ([1]; rate 250 ml/1000 kg) was 75.06% and the “Tuber sprate 126 da-a” value ([1]; rate 50 ml/1000 kg) was 8.83. For the same compound, the “Tuber sprate 126 da-a” value ([1]; rate 100 ml/1000 kg) was 9.5 and 8.83, the “Tuber sprate 126 da-a” value ([1]; rate 150 ml/1000 kg) was 9.5 and 9.58 and the “Tuber sprate 126 da-a” value ([1]; rate 200 ml/1000 kg) was 9.67 and 9.75. For the same compound, the “Tuber sprate 126 da-a” value ([1]; rate 250 ml/1000 kg) was 9.75, the “Sprout lenmax 182 DA-A” value ([1]; rate 50 ml/1000 kg) was 4.2 and the “Sprout lenmax 182 DA-A” value ([1]; rate 150 ml/1000 kg) was 1 and 0.7. The “Sprout lenmax 182 DA-A” value ([1]; rate 200 ml/1000 kg) was 1.7 and 1, the “Sprout lenmax 182 DA-A” value ([1]; rate 250 ml/1000 kg) was 1.2 and the “Sprout weight 182 DA” value ([1]; rate 50 ml/1000 kg) was 23. For the same compound, the “Tuber sprouted % 182 DA” value ([1]; rate 50 ml/1000 kg) was 88.1%, the “Tuber sprouted % 182 DA” value ([1]; rate 100 ml/1000 kg) was 83.33% and 86.19% and the “Sprout weight 182 DA” value ([1]; rate 150 ml/1000 kg) was 3.77 and 3.13. For the same compound, the “Tuber sprouted % 182 DA” value ([1]; rate 150 ml/1000 kg) was 73.1% and 75.45%, the “Sprout weight 182 DA” value ([1]; rate 200 ml/1000 kg) was 5.77 and 3.3 and the “Tuber sprouted % 182 DA” value ([1]; rate 200 ml/1000 kg) was 77.93% and 65.99%. For the same compound, the “Sprout weight 182 DA” value ([1]; rate 250 ml/1000 kg) was 3.53, the “Tuber sprouted % 182 DA” value ([1]; rate 250 ml/1000 kg) was 74.98% and the “Tuber sprate 182 da-a” value ([1]; rate 50 ml/1000 kg) was 8.67. For the same compound, the “Tuber sprate 182 da-a” value ([1]; rate 100 ml/1000 kg) was 9.67 and 8.83, the “Tuber sprate 182 da-a” value ([1]; rate 150 ml/1000 kg) was 9.75 and the “Tuber sprate 182 da-a” value ([1]; rate 200 ml/1000 kg) was 9.58 and 9.67. For the same compound, the “Tuber sprate 182 da-a” value ([1]; rate 250 ml/1000 kg) was 9.67, the “sprout control over time (in words)” value ([1]; as compared to other treatments such as maleic hydrazide, CIPC) was “effective sprout control over an extended period of time” and the “inhibition of sprouts (in words)” value ([1]; comment on Table 3) was “effective for inhibition of sprouts”. For the same compound, the “sprout weight (in words)” value ([1]; comment on Table 3, as compared to maleic hydrazide) was “an advantage was found” and the tubers germinated ([1]; comment on Table 5, dose rate 250 ml/1000 kg) was 74%.
For `C=C(C)C1CC=C(C)C(=O)C1` (stereo not drawn) [Carvone], the “Sprout No.” value (storage potatoes; [6]) was 12.3, the “Sprouted (%)” value (storage potatoes; [6]) was 32.02% and the “Sprout Number” value (storage potatoes; [3]) was 34.0. The “Sprouted (%)” value (storage potatoes; [3]) was 96.02%.
